The record followed here is US20210113441A1, “BIOSOLVENT MIXTURE REMOVAL OF INFECTION-CAUSED NAIL DISCOLORATION” (Vertec BioSolvents, Inc., priority 2019, published 2021).

This data set in a line: Solubility studies in 50/50 alcohol/ethyl lactate blends. As to conditions: for Final concentration dissolved (clear, free of particulates): ambient temperature about 20-25 C.

For the molecule `Clc1ccccc1C(c1ccccc1)(c1ccccc1)n1ccnc1` [clotrimazole, Clotrimazole], the Solubility entry reads like this: (ethanol/ethyl lactate 50/50 blend (conclusion)) “greater than 10 % w/w”; (isopropanol/ethyl lactate 50/50 blend (conclusion)) “greater than 10 % w/w”. In addition, the “Final concentration dissolved (clear, free of particulates)” value is, setting by setting: (ethyl alcohol/ethyl lactate blend 50/50 w/w) 10.31%; (isopropyl alcohol/ethyl lactate blend 50/50 w/w) 10.07%.
